# “And” between values parts separate entries of the source, which are not always exact repeats. Equal values may be shown once.
# Assays:
# HDAC10 = target: T1, HDAC10 (Homo sapiens, UniProt Q969S8); assay: In vitro deacetylation assay, HDAC10 (fluorescein-labeled N8-acetylspermidine, RP-HPLC); assay type: biochemical; conditions: for IC50: purified human HDAC10, read-out: IC50 HDAC10; for SI (HD6/HD10): ratio of IC50 HDAC10 divided by IC50 HDAC6
# T1 construct: HDAC10 1 – 667 Open Biosystems; Strep-FLAG-HALO (N); made in house; host or cells: HEK293/T17
# T1 sequence (Q969S8 1-667): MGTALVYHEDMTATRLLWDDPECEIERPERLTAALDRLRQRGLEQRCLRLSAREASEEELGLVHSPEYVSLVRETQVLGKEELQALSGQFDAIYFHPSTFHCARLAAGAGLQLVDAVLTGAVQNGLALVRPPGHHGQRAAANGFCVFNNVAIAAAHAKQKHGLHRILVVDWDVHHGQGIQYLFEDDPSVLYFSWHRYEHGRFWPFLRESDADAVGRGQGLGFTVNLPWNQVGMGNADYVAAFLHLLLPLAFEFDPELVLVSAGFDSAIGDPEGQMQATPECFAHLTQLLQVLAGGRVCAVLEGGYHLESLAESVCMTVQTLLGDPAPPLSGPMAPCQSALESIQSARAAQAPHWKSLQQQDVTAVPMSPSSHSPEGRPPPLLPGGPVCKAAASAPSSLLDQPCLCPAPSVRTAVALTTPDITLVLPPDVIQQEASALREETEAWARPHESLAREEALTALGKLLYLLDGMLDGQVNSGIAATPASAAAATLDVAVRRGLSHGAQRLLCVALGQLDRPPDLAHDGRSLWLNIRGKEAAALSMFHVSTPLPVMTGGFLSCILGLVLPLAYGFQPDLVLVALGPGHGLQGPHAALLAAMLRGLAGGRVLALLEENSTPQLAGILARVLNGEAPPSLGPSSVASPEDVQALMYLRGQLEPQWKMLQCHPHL
# HDAC1 [1] = target: T2, HDAC1 (Homo sapiens, UniProt Q13547); assay: In vitro deacetylation assay, HDAC1 (GAK substrate); assay type: biochemical; conditions: for IC50: purified human HDAC1, GAK substrate 10 µM
# T2 construct: HDAC1 1-482 Addgene; Strep-FLAG-HALO (N); made in house; host or cells: HEK293/T17
# T2 sequence (Q13547 whole entry): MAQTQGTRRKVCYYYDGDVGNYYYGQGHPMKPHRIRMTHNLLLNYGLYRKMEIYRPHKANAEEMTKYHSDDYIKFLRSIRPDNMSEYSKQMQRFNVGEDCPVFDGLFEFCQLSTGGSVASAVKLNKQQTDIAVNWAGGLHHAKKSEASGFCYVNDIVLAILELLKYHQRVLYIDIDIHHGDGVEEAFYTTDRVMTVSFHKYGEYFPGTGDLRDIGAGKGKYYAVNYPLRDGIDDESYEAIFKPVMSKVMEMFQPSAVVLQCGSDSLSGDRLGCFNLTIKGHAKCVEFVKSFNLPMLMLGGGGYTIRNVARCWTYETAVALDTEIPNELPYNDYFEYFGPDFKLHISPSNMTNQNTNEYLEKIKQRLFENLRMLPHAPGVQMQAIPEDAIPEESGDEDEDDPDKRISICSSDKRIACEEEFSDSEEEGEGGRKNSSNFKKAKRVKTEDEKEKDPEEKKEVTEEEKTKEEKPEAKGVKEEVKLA
# HDAC1 [2] = target: T2, HDAC1; assay: In vitro deacetylation assay, HDAC1 (RHKK substrate); assay type: biochemical; conditions: for IC50: purified human HDAC1, RHK[AcK]-AMC (RHKK) substrate; for SI (HD6/HD1) RHKK: ratio of IC50 HDAC1 (RHKK) divided by IC50 HDAC6
# tubulin acetylation = assay: Tubulin acetylation in RPMI-8226 cells by quantitative Western blotting; assay type: cell-based; conditions: Homo sapiens, RPMI-8226, 6 h; read-out: IC50 tubulin deacetylation (relative tubulin acetylation)
# HDAC1-nanoLuc = HDAC1-nanoLuc (Homo sapiens, UniProt Q13547); assay: nanoBRET target engagement assay, HDAC1; assay type: cell-based; conditions: HEK293T/17 cells stably expressing HDAC1-nanoLuc, 2 h
# Chain of HDAC1-nanoLuc (Q13547 whole entry): as above
# MTT viability assay = assay type: cell-based; conditions: human, RPMI-8226 lymphoblasts, RPMI-8226 cells, read-out: EC50 cytotoxicity (MTT viability)
# Protocol: RPMI-8226 lymphoblasts (ATTC #CCL-155) were used to assess the cytotoxicity of tested compounds. […] Dilution series of tested inhibitors were prepared as 10x stock solutions in PBS and 10 μL was added to cells and incubated under a 5% CO2 atmosphere at 37 °C, for 2 days. Following incubation, 10 μL of MTT reagent (3-(4,5-dimethylthiazol-2-yl)-2,5-diphenyltetrazolium bromide, 5 mg/mL in PBS, Sigma Aldrich) was added to each well and incubated for 90 min, 37 °C, 5% CO2. […]
# HDAC6 = target: T3, HDAC6 (Homo sapiens, UniProt Q9UBN7); assay: In vitro deacetylation assay, HDAC6 (GAK substrate); assay type: biochemical; conditions: for EC50: Figure 2C, in vitro data in μM; for IC50: purified human HDAC6, Ac-GAK-Ac-AMC (GAK) substrate 10 µM
# T3 construct: HDAC6 2-1215 Open Biosystems; Strep-FLAG-HALO (N); made in house; host or cells: HEK293/T17
# T3 sequence (Q9UBN7 2-1215): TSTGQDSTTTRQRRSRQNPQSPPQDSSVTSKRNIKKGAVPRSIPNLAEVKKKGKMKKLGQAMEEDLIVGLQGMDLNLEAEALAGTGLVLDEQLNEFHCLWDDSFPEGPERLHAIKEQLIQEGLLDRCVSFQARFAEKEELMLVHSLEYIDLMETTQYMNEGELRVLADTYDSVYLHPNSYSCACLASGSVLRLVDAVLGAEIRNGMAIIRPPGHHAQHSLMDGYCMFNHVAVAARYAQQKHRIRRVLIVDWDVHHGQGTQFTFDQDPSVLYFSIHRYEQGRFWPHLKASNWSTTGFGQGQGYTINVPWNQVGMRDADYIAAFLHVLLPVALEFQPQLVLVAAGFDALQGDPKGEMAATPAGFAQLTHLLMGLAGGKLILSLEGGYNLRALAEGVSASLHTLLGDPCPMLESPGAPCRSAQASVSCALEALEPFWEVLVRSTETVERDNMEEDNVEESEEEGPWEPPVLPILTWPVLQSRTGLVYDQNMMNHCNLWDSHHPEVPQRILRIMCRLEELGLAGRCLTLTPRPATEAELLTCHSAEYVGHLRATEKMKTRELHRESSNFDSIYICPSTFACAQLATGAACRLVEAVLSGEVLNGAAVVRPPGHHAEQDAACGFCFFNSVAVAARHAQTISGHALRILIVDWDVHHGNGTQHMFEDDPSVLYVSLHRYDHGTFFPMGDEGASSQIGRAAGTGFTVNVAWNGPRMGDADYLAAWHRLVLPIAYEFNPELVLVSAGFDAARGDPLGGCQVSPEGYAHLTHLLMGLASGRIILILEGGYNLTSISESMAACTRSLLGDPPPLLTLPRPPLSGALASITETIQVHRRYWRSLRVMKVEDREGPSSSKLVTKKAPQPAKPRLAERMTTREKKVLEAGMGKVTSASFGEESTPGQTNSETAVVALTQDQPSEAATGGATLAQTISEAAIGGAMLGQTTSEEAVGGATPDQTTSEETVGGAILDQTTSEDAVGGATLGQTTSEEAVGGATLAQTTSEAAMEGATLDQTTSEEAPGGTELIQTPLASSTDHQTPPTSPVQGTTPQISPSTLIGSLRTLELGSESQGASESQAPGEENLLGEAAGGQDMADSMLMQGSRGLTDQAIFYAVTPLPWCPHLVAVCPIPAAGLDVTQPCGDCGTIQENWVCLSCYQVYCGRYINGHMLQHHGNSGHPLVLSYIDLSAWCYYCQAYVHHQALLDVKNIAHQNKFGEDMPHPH
structure (smiles),measurement,setting,value
O=C(NO)c1cnc(NC2(c3cccc(F)c3)CCCCC2)nc1 [ACY-775],IC50,HDAC10,34 nM
same,SI (HD6/HD10),HDAC10,30.6
same,EC50,"HDAC1 [1]; Figure 2C, in vitro data (GAK) in μM",1.19 µM
same,IC50,HDAC1 [1],1190 nM
same,"SI (HD6/HD1) GAK, in vitro",HDAC1 [1]; ratio of IC50 HDAC1 (GAK) divided by IC50 HDAC6,1076
same,IC50,HDAC1 [2],21700 nM
same,SI (HD6/HD1) RHKK,HDAC1 [2],"19,550"
same,IC50,tubulin acetylation,426 nM
same,EC50,HDAC1-nanoLuc,> 50000 nM
same,EC50 at 48 h,MTT viability assay,8600 nM
same,EC50,HDAC6,0.0011 µM
same,IC50,HDAC6,1.11 nM
"CS(=O)(=O)N(Cc1ccc(-c2nnc(C(F)F)o2)cn1)c1cccc(Cl)c1 [compound 7, N-(3-chlorophenyl)-N-((5-(5-(difluoromethyl)-1,3,4-oxadiazol-2-yl)pyridin-2-yl)methyl)methanesulfonamide]",IC50,HDAC10,> 50000 nM
same,SI (HD6/HD10),HDAC10,">25,000"
same,IC50,HDAC1 [1],> 50000 nM
same,IC50,HDAC1 [2],> 50000 nM
same,SI (HD6/HD1) RHKK,HDAC1 [2],">25,000"
same,IC50,tubulin acetylation,616 nM
same,EC50,HDAC1-nanoLuc,> 50000 nM
same,EC50 at 48 h,MTT viability assay,> 50000 nM
same,EC50,HDAC6,0.0021 µM
same,IC50,HDAC6,2.1 nM and 2.06 nM

# Source: paper PMC10003107, “Selectivity of Hydroxamate- and Difluoromethyloxadiazole-Based Inhibitors of Histone Deacetylase 6 In Vitro and in Cells” (International Journal of Molecular Sciences, 2023)
